Assay results published in ChEMBL document CHEMBL1151083, “Synthesis & characterization of N-amino-glyphosate as a potent analog inhibitor of E. coli EPSP synthase” (Bioorg Med Chem Lett, 1993).

Columns and labels:
[1] = target: T1, 3-phosphoshikimate 1-carboxyvinyltransferase (Escherichia coli K-12, UniProt P0A6D3); assay: Tested for the inhibition against Escherichia coli 5-enolpyruvyl-shikimate-3-phosphate synthase
T1 sequence (P0A6D3 whole entry): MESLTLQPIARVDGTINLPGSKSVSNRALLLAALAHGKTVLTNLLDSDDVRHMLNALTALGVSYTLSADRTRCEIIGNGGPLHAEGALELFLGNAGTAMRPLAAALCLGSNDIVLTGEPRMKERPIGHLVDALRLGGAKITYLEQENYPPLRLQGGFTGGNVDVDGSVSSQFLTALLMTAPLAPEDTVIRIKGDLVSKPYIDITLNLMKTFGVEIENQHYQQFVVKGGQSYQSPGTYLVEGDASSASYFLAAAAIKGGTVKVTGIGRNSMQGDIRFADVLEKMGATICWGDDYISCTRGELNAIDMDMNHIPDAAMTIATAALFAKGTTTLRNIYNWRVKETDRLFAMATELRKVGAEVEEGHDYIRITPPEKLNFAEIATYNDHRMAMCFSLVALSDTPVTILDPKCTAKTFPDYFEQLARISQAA

[2] = target: T1, 3-phosphoshikimate 1-carboxyvinyltransferase; assay: Tested for the inhibition against Escherichia coli 5-enolpyruvyl-shikimate-3-phosphate synthase versus phosphoenolpyruvate
[3] = target: T2, 3-phosphoshikimate 1-carboxyvinyltransferase (Escherichia coli K-12) (UniProt P0A6D3)
T2 sequence (whole entry): T1 sequence (P0A6D3 whole entry)
Description: Tested for the rate of association against Escherichia coli 5-enolpyruvyl-shikimate-3-phosphate synthase

[4] = target: T2, 3-phosphoshikimate 1-carboxyvinyltransferase (Escherichia coli K-12); remark: listed apart in the source
Description: Tested for the dissociation rate against Escherichia coli 5-enolpyruvyl-shikimate-3-phosphate synthase

[5] = target: T1, 3-phosphoshikimate 1-carboxyvinyltransferase; assay: Tested for the dissociation constant against Escherichia coli 5-enolpyruvyl-shikimate-3-phosphate synthase

| Structure (SMILES) | IC50 [1] [µM] | Ki [2] [µM] | also measured |
| --- | --- | --- | --- |
| CN(CC(=O)O)CP(=O)(O)O | 150 | 78 | – |
| O=C(O)CN(O)CP(=O)(O)O | – | 2.2 | – |
| O=C(O)CNCP(=O)(O)O | – | – | k on [3]: 780000 M⁻¹ s⁻¹; k off [4]: 0.12 s⁻¹ |
| COC(=O)CNCP(=O)(O)O | > 1 | – | – |
| CC(NCC(=O)O)P(=O)(O)O (stereo not given) | > 80 | – | – |
| CC(NCP(=O)(O)O)C(=O)O (stereo not given) | > 80 | – | – |
| NC(CC(=O)O)CP(=O)(O)O (stereo not given) | > 80 | – | – |
| O=C(O)CNC[PH](=O)O | 700 | – | – |
| O=NN(CC(=O)O)CP(=O)(O)O | – | 2.2 | – |
| NN(CC(=O)O)CP(=O)(O)O | – | 0.61 | k on [3]: 320000 M⁻¹ s⁻¹; k off [4]: 0.16 s⁻¹; Kd [5]: 0.5 µM |
